According to patent US10945989B2, “Perinatal treatment with a flavonoid agonist of the TrkB receptor for BDNF rescues neurogenesis and behavior in the Ts65Dn mouse model of DS” (ALMA MATER STUDIORUM—Universita' di Bologna, priority 2017, dated 2021):

Columns and labels:
Assay type in all cases: in vivo, mouse
[1] = tested on: BDNF; assay: Western blot of hippocampal homogenates: BDNF
Experimental: Euploid and Ts65Dn mice received a daily subcutaneous injection (at 9-10 am) of 7,8-DHF (5.0 mg/kg in vehicle: PBS with 1% DMSO) or vehicle from postnatal day 3 (P3) to postnatal day 15. This timing was chosen because it corresponds to that previously used to test the effects of fluoxetine and other pharmacotherapies in the neonate Ts65Dn mouse (Bianchi et al., 2010b; Giacomini et al., 2015; Stagni et al., 2016). Mice that received 7,8-DHF will be called “treated mice” (treated euploid mice: n=25; treated Ts65Dn mice: n=15). Mice that received the vehicle will be called “untreated mice” (untreated euploid mice: n=35; untreated Ts65Dn mice: n=21). […] The brains were excised and cut along the midline. The left hemisphere of a group of mice was fixed by immersion in PFA 4% and frozen, and the left hemisphere of another group of mice was used for Golgi staining. […]
In homogenates of the hippocampal formation of P15 mice, total proteins were obtained as previously described (Trazzi et al., 2011) and the levels of the following proteins were evaluated: BDNF, TrkB full length (TrkB-FL), phosphorylated TrkB (p-TrkB), the truncated form 1 of the TrkB receptor (TrkB-T1), phosphorylated ERK1 (p-ERK1), phosphorylated ERK2 (p-ERK2), ERK1, ERK2, synaptophysin (SYN), GAPDH and α-Tubulin using the antibodies reported in Table 1. […]

[2] = tested on: proliferating cells in the SGZ; assay: Prenatal treatment: BrdU-positive cells in the SGZ of P2 mice
Experimental: Conception was determined by examining the vaginal plug. […] After sacrifice, brain was excised and weighed.
One of 20 sections (n=8-10) from the beginning to the end of the hippocampal formation were subjected to double-fluorescence immunohistochemistry for BrdU and NeuN. Sections were incubated overnight at 4° C. with a primary antibody, rat monoclonal anti-BrdU antibody (AbD Serotec), diluted 1:100 in 0.1% Triton X-100 in PBS and either mouse monoclonal anti-NeuN (Millipore Bioscience Research Reagents) diluted 1:400 in 0.1% Triton X-100 in PBS. Sections were then washed in 0.1% Triton X-100 in PBS for 40 min and incubated for 2 h with a Cy3-conjugated anti-rat IgG (1:200; Jackson Immunoresearch) secondary fluorescent antibody for BrdU immunohistochemistry and FITC-conjugated anti-mouse IgG (1:200; Jackson Immunoresearch) for NeuN immunohistochemistry.
BrdU-positive cells were sampled in the caudal subventricular zone (SVZ) of the lateral ventricle overlying the dentate gyrus and from the subgranular zone (SGZ) of the dentate gyrus (FIG. 10A). The caudal SVZ is the region that stretches from the beginning to the end of the hippocampal formation (BC: 3.27-4.84 mm). Since different regions of the ventricular zone (VZ) and SVZ give origin to neurons destined to different telecephalic areas (Brazel et al., 2003), we evaluated the effects of treatment both in the dorsal and lateral part of the SVZ (FIG. 10B). For cell counting, an area was traced enclosing the whole SVZ and all cells in this area were counted. While at later life stages, neural progenitor cells are only present in the SGZ of the dentate gyrus, in P2 pups proliferating cells can be detected in the perspective molecular layer and hilus. Therefore, cells were counted within a manually-traced area enclosing the whole dentate gyrus (FIG. 10B). […] Quantification of BrdU-labeled nuclei was conducted in every 20th section. The total number of BrdU labeled cells in the SVZ and SGZ was estimated by multiplying the number counted in the sampled sections by the inverse of the section sampling fraction (ssf= 1/20).

[3] = tested on: neural precursor cells of the DG; assay: BrdU-positive cells in the dentate gyrus of P15 mice; settings: for number of BrdU-positive cells in the DG: Ts65Dn pups
Experimental: In a pilot study we tested the effects of different doses of 7,8-DHF on the proliferation rate in the SGZ of Ts65Dn mice. Mice received a daily subcutaneous injection of 7,8-DHF (2.5, 5.0, or 10.0 mg/kg in PBS with 1-2% DMSO) from postnatal day 3 (P3) to P15. […] Therefore, this study (Experiment 1 and Experiment 2) was carried out using a 5.0 mg/kg dose.
Euploid and Ts65Dn mice received a daily subcutaneous injection (at 9-10 am) of 7,8-DHF (5.0 mg/kg in vehicle: PBS with 1% DMSO) or vehicle from postnatal day 3 (P3) to postnatal day 15. This timing was chosen because it corresponds to that previously used to test the effects of fluoxetine and other pharmacotherapies in the neonate Ts65Dn mouse (Bianchi et al., 2010b; Giacomini et al., 2015; Stagni et al., 2016). Mice that received 7,8-DHF will be called “treated mice” (treated euploid mice: n=25; treated Ts65Dn mice: n=15). Mice that received the vehicle will be called “untreated mice” (untreated euploid mice: n=35; untreated Ts65Dn mice: n=21). […] The brains were excised and cut along the midline. The left hemisphere of a group of mice was fixed by immersion in PFA 4% and frozen, and the left hemisphere of another group of mice was used for Golgi staining. The right hemispheres of all mice was kept at −80° C. and used for western blotting.
One out of six free-floating sections (n=15-18 sections) from the hippocampal formation of P15 mice was incubated with rat anti-BrdU antibody.
BrdU-positive cells in the DG of P15 mice were detected using a fluorescence microscope (Eclipse; objective: ×40, 0.75 NA; final magnification: ×400). Quantification of BrdU-labeled nuclei was conducted in every 6th section using a modified unbiased stereology protocol that has previously been reported as successfully quantifying BrdU labeling (Malberg et al., 2000; Kempermann and Gage, 2002; Tozuka et al., 2005). All BrdU labeled cells located in the granule cell and subgranular layers were counted in their entire z axis (1 μm steps) in each section. To avoid oversampling errors, nuclei intersecting the uppermost focal plane were excluded. The total number of BrdU labeled cells per animal was determined and multiplied by six to obtain the total estimated number of cells per DG.

O=c1cc(-c2ccccc2)oc2c(O)c(O)ccc12 [7,8-DHF, 7,8-dihydroxyflavone] was tested, and the “BDNF levels in the hippocampus” value ([1]; P15 Ts65Dn mice, statistically significant) was “reduction in BDNF levels”, the “BDNF levels in the hippocampus” value ([1]; P15 euploid mice, not statistically significant) was “reduction in BDNF levels” and the “total number of BrdU-positive cells in the SGZ, treated Ts65Dn vs untreated euploid mice” value ([2]; P2, treated E10-E20/21) was “no differences in total number of BrdU-positive cells”. The “total number of BrdU-positive cells in the SGZ” value ([2]; P2 Ts65Dn mice, dams 5 mg/kg s.c. E10-E20/21, untreated Ts65Dn approx. 12850, euploid approx. 17500) was “approximately 16800”, the “increase in cell number in the SGZ vs untreated Ts65Dn” value ([2]; P2 Ts65Dn mice, treated E10-E20/21) was “+30%” and the “number of BrdU-positive cells in the DG” value ([3]; 2.5 mg/kg P3-P15, vs vehicle) was “no effect”. The “number of BrdU-positive cells in the DG” value ([3]; 5.0 mg/kg P3-P15, vs vehicle) was “increased the number of BrdU-positive cells”, the “number of BrdU-positive cells in the DG” value ([3]; 10.0 mg/kg P3-P15, vs vehicle) was “increased the number of BrdU-positive cells” and the “number of NPCs (BrdU-positive cells) in the DG” value ([3]; euploid mice, 5.0 mg/kg P3-P15) was “no effect on the number of NPCs”. For the same compound, the “optimum dose for proliferation rate in the SGZ” value ([3]; pilot study, Ts65Dn mice, 2.5, 5.0 or 10.0 mg/kg s.c. P3-P15) was 5.0 mg/kg and the “total number of BrdU-positive (proliferating) cells per DG” value ([3]; treated Ts65Dn mice, 5.0 mg/kg P3-P15, mean±SE, untreated Ts65Dn 7166±337, untreated euploid 10,281±111) was 8963±449.
